Measurements as given in ChEMBL document CHEMBL4177703, “The discovery and optimization of naphthalene-linked P2-P4 Macrocycles as inhibitors of HCV NS3 protease” (Bioorg Med Chem Lett, 2018).

Columns and labels:
[1] = Clearance in rat at 5 mg/kg, iv or 15 mg/kg, po; type: ADME, organism-based; settings: in vivo
[2] = Oral bioavailability in rat at 15 mg/kg; type: ADME, organism-based; settings: in vivo
[3] = Half life in human liver microsomes in presence of NADPH; type: ADME, microsome
[4] = AUC in Sprague-Dawley rat at 5 mg/kg, iv after 24 hrs; type: ADME, organism-based; parameters: dose 5 mg/kg, time < 24 hr, route intravenous; settings: in vivo
[5] = Drug concentration in Sprague-Dawley rat liver at 15 mg/kg, po after 24 hrs; type: ADME, organism-based; settings: read-out: Drug uptake
[6] = Half life in Sprague-Dawley rat at 15 mg/kg, po after 24 hrs; type: ADME, organism-based; settings: in vivo
[7] = Oral bioavailability in Sprague-Dawley rat at 15 mg/kg after 24 hrs; type: ADME, organism-based; settings: in vivo
[8] = Clearance in Sprague-Dawley rat at 5 mg/kg, iv after 24 hrs; type: ADME, organism-based; settings: in vivo
[9] = AUC in Sprague-Dawley rat at 15 mg/kg, po after 24 hrs; type: ADME, organism-based; parameters: time < 24 hr, dose 15 mg/kg, route oral; settings: in vivo
[10] = Half life in Sprague-Dawley rat at 5 mg/kg, iv after 24 hrs; type: ADME, organism-based; settings: in vivo
[11] = Drug concentration in Sprague-Dawley rat liver at 5 mg/kg, iv after 24 hrs; type: ADME, organism-based; settings: read-out: Drug uptake
[12] = Cardiotoxicity in Langendorff perfused rabbit heart assessed as change in sinus node recovery time at 10 uM measured over 20 mins by electrocardiography (reference value: 0%); type: toxicity, tissue-based, Oryctolagus cuniculus
[13] = Cardiotoxicity in Langendorff perfused rabbit heart assessed as change in sinus node recovery time at 10 uM measured over 10 mins by electrocardiography (reference value: 0%); type: toxicity, tissue-based, Oryctolagus cuniculus
[14] = Cardiotoxicity in Langendorff perfused rabbit heart assessed as change in QRS interval at 10 uM measured over 10 mins by electrocardiography (reference value: 0%); type: toxicity, tissue-based, Oryctolagus cuniculus
[15] = Cardiotoxicity in Langendorff perfused rabbit heart assessed as change in PR interval at 10 uM measured over 20 mins by electrocardiography (reference value: 0%); type: toxicity, tissue-based, Oryctolagus cuniculus
[16] = Cardiotoxicity in Langendorff perfused rabbit heart assessed as change in PR interval at 10 uM measured over 10 mins by electrocardiography (reference value: 0%); type: toxicity, tissue-based, Oryctolagus cuniculus
[17] = Cardiotoxicity in Langendorff perfused rabbit heart assessed as change in coronary flow at 10 uM measured over 20 mins by electrocardiography (reference value: 0%); type: toxicity, tissue-based, Oryctolagus cuniculus
[18] = Cardiotoxicity in Langendorff perfused rabbit heart assessed as change in PR interval at 10 uM measured over 30 mins by electrocardiography (reference value: 0%); type: toxicity, tissue-based, Oryctolagus cuniculus; settings: 0.5 h
[19] = Cardiotoxicity in Langendorff perfused rabbit heart assessed as change in QRS interval at 10 uM measured over 20 mins by electrocardiography (reference value: 0%); type: toxicity, tissue-based, Oryctolagus cuniculus
[20] = Cardiotoxicity in Langendorff perfused rabbit heart assessed as change in coronary flow at 10 uM measured over 30 mins by electrocardiography (reference value: 0%); type: toxicity, tissue-based, Oryctolagus cuniculus; settings: 0.5 h
[21] = Cardiotoxicity in Langendorff perfused rabbit heart assessed as change in coronary flow at 10 uM measured over 10 mins by electrocardiography (reference value: 0%); type: toxicity, tissue-based, Oryctolagus cuniculus
[22] = Cardiotoxicity in Langendorff perfused rabbit heart assessed as change in heart rate at 10 uM measured over 10 mins by electrocardiography (reference value: 0%); type: toxicity, tissue-based, Oryctolagus cuniculus
[23] = Cardiotoxicity in Langendorff perfused rabbit heart assessed as change in QT interval at 10 uM measured over 20 mins by electrocardiography (reference value: 0%); type: toxicity, tissue-based, Oryctolagus cuniculus
[24] = Cardiotoxicity in Langendorff perfused rabbit heart assessed as change in QT interval at 10 uM measured over 30 mins by electrocardiography (reference value: 0%); type: toxicity, tissue-based, Oryctolagus cuniculus; settings: 0.5 h
[25] = Cardiotoxicity in Langendorff perfused rabbit heart assessed as change in QT interval at 10 uM measured over 10 mins by electrocardiography (reference value: 0%); type: toxicity, tissue-based, Oryctolagus cuniculus
[26] = Cardiotoxicity in Langendorff perfused rabbit heart assessed as change in heart rate at 10 uM measured over 20 mins by electrocardiography (reference value: 0%); type: toxicity, tissue-based, Oryctolagus cuniculus
[27] = Cardiotoxicity in Langendorff perfused rabbit heart assessed as change in QRS interval at 10 uM measured over 30 mins by electrocardiography (reference value: 0%); type: toxicity, tissue-based, Oryctolagus cuniculus; settings: 0.5 h
[28] = Cardiotoxicity in Langendorff perfused rabbit heart assessed as change in heart rate at 10 uM measured over 30 mins by electrocardiography (reference value: 0%); type: toxicity, tissue-based, Oryctolagus cuniculus; settings: 0.5 h
[29] = Cardiotoxicity in Langendorff perfused rabbit heart assessed as change in sinus node recovery time at 10 uM measured over 30 mins by electrocardiography (reference value: 0%); type: toxicity, tissue-based, Oryctolagus cuniculus; settings: 0.5 h
[30] = Drug concentration in Sprague-Dawley rat liver at 5 mg/kg, iv after 6 hrs; type: ADME, organism-based; settings: read-out: Drug uptake
[31] = AUC in Sprague-Dawley rat at 5 mg/kg, iv after 6 hrs; type: ADME, organism-based; parameters: time < 6 hr, dose 5 mg/kg, route intravenous; settings: in vivo
[32] = Clearance in Sprague-Dawley rat at 5 mg/kg, iv after 6 hrs; type: ADME, organism-based; settings: in vivo
[33] = AUC in Sprague-Dawley rat at 15 mg/kg, po after 6 hrs; type: ADME, organism-based; parameters: dose 15 mg/kg, time < 6 hr, route oral; settings: in vivo
[34] = Drug concentration in Sprague-Dawley rat liver at 15 mg/kg, po after 6 hrs; type: ADME, organism-based; settings: read-out: Drug uptake

## C=C[C@@H]1C[C@]1(NC(=O)[C@@H]1C[C@@H](Oc2ncc(OC)c3ccc(Cl)cc23)CN1C(=O)[C@@H](NC(=O)OC(C)(C)C)C(C)(C)C)C(=O)NS(=O)(=O)C1CC1
[1]
  clearance: 38 mL/min/kg
[2]
  bioavailability: 12%

## C=C[C@@H]1C[C@]1(NC(=O)[C@@H]1C[C@@](OC)(c2ccc3cc(OC)ccc3c2)CN1C(=O)[C@@H](NC(=O)OC(C)(C)C)C(C)(C)C)C(=O)NS(=O)(=O)C1CC1
[3]
  half-life: 0.35 h

## CO[C@@]12C[C@@H](C(=O)N[C@]3(C(=O)NS(=O)(=O)C4CC4)C[C@H]3C3CC3)N(C1)C(=O)[C@H](C(C)(C)C)NC(=O)OCCCCCOc1ccc3ccc2cc3c1
[4]
  AUC at 24 h: 7.2 µM·h
[5]
  concentration at 24 h: 31 µM
[6]
  half-life: 4.2 h
[7]
  bioavailability: 16%
[3]
  half-life: 0.65 h
[8]
  clearance: 19 mL/min/kg
[9]
  AUC at 24 h: 3.6 µM·h
[10]
  half-life: 4.6 h
[11]
  concentration at 24 h: 45 µM

## C=C[C@@H]1C[C@]1(NC(=O)[C@@H]1C[C@]2(OC)CN1C(=O)[C@H](C(C)(C)C)NC(=O)OCC(C)(C)CCCCc1cc3cc2ccc3cc1OC)C(=O)NS(=O)(=O)C1CC1
[3]
  half-life: 0.967 h

## C=C[C@@H]1C[C@]1(NC(=O)[C@@H]1C[C@]2(OC)CN1C(=O)[C@H](C(C)(C)C)NC(=O)OCCCCCCCCc1cc3cc2ccc3cc1OC)C(=O)NS(=O)(=O)C1CC1
[3]
  half-life: 0.55 h

## COc1cc2ccc3cc2cc1CCCC(C)(C)CCOC(=O)N[C@@H](C(C)(C)C)C(=O)N1C[C@@]3(OC)C[C@H]1C(=O)N[C@]1(C(=O)NS(=O)(=O)C2CC2)C[C@H]1C1CC1
[4]
  AUC at 24 h: 29 µM·h
[12]
  Activity: 16%
[13]
  Activity: 3%
[5]
  concentration at 24 h: 85 µM
[6]
  half-life: 3.9 h
[14]
  Activity: 17%
[15]
  Activity: 0%
[7]
  bioavailability: 100%
[16]
  Activity: 4%
[17]
  Activity: 14%
[18]
  Activity: 0%
[19]
  Activity: 31%
[20]
  Activity: -10%
[21]
  Activity: 43%
[22]
  Activity: 5%
[3]
  half-life: 1.27 h
[23]
  Activity: 0%
[24]
  Activity: 0%
[8]
  clearance: 3.5 mL/min/kg
[25]
  Activity: -4%
[26]
  Activity: -5%
[9]
  AUC at 24 h: 87 µM·h
[27]
  Activity: 31%
[10]
  half-life: 9.6 h
[11]
  concentration at 24 h: 100 µM
[28]
  Activity: -16%

## COc1cc2ccc3cc2cc1CCCCCCOC(=O)N[C@@H](C(C)(C)C)C(=O)N1C[C@@]3(OC)C[C@H]1C(=O)N[C@]1(C(=O)NS(=O)(=O)C2CC2)C[C@H]1C1CC1
[4]
  AUC at 24 h: 57 µM·h
[12]
  Activity: 6%
[13]
  Activity: 4%
[6]
  half-life: 5.3 h
[14]
  Activity: 10%
[15]
  Activity: 9%
[7]
  bioavailability: 34%
[16]
  Activity: 2%
[17]
  Activity: 21%
[18]
  Activity: 18%
[19]
  Activity: 32%
[29]
  Activity: 19%
[20]
  Activity: 19%
[21]
  Activity: 18%
[22]
  Activity: -2%
[3]
  half-life: 1.65 h
[23]
  Activity: 10%
[24]
  Activity: 7%
[8]
  clearance: 2 mL/min/kg
[25]
  Activity: 7%
[26]
  Activity: -5%
[9]
  AUC at 24 h: 59 µM·h
[27]
  Activity: 43%
[10]
  half-life: 9.5 h
[28]
  Activity: -13%

## COc1cc2ccc3cc2cc1CCCCC(C)(C)COC(=O)N[C@@H](C(C)(C)C)C(=O)N1C[C@@]3(OC)C[C@H]1C(=O)N[C@]1(C(=O)NS(=O)(=O)C2CC2)C[C@H]1C1CC1
[3]
  half-life: 1.38 h

## COC(=O)N1CCCOc2cc3cc(ccc3cc2OC)[C@]2(OC)C[C@@H](C(=O)N[C@]3(C(=O)NS(=O)(=O)C4CC4)C[C@H]3C3CC3)N(C2)C(=O)[C@H](C(C)(C)C)NC(=O)OCC1
[3]
  half-life: > 2 h

## COc1cc2ccc3cc2cc1OCCCN(C1CC1)CCOC(=O)N[C@@H](C(C)(C)C)C(=O)N1C[C@@]3(OC)C[C@H]1C(=O)N[C@]1(C(=O)NS(=O)(=O)C2CC2)C[C@H]1C1CC1
[4]
  AUC at 24 h: 33 µM·h
[6]
  half-life: 8 h
[7]
  bioavailability: 18%
[3]
  half-life: 0.717 h
[8]
  clearance: 3.5 mL/min/kg
[9]
  AUC at 24 h: 18 µM·h
[10]
  half-life: 20 h

## C=Cc1cc2cc([C@]3(OC)C[C@@H](C(=O)N[C@]4(C(=O)NS(=O)(=O)C5CC5)C[C@H]4C=C)N(C(=O)[C@@H](NC(=O)OC(C)(C)C)C(C)(C)C)C3)ccc2cc1OC
[3]
  half-life: 0.6 h

## C=C[C@@H]1C[C@]1(NC(=O)[C@@H]1C[C@]2(OC)CN1C(=O)[C@H](C(C)(C)C)NC(=O)OCCCCCCc1cc3cc2ccc3cc1OC)C(=O)NS(=O)(=O)C1CC1
[30]
  concentration at 6 h: 95 µM
[31]
  AUC at 6 h: 90 µM·h
[32]
  clearance: 1.2 mL/min/kg
[33]
  AUC at 6 h: 27 µM·h
[3]
  half-life: 0.417 h
[34]
  concentration at 6 h: 108 µM

## C=C[C@@H]1C[C@]1(NC(=O)[C@@H]1C[C@]2(OC)CN1C(=O)[C@H](C(C)(C)C)NC(=O)OCCCCCOc1ccc3ccc2cc3c1)C(=O)NS(=O)(=O)C1CC1
[3]
  half-life: 0.367 h
